From the supplement of paper PMC8671470
± gives the standard deviation of the averaged measurements.

Experiments:
Details in all cases: 72 h
HL-60 [1] = assay: cell viability (% survival relative to DMSO control); higher = less cytotoxic
Procedure, shortened: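 For each screen, HL-60 cells in RPMI 1640 with 10% FBS carried either DMSO or 100 nM of one of three metabolic inhibitors while the full library was applied at five tenfold concentrations, 1–10,000 nM, in duplicate. Plates were 384-well and were kept 72 h at 37 °C, 5% CO2. Viability, measured by CellTiter-Glo, was normalised to wells with DMSO and with 10 μM proteasome inhibitor. Where area under the curve appears, it was fitted by four-parameter log-logistic models in drc and PharmacoGx.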

Mono-Mac-6 [2] = assay: cell viability (% survival relative to DMSO control, bortezomib = 0%); higher = less cytotoxic
Procedure, shortened: (§1)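 Reported values are percent survival from duplicate wells, averaged. Fifteen myeloid leukaemia cell lines were treated in 384-well plates with compounds at 1, 10, 100, 1000 or 10000 nM for 72 h at 37 °C in 5% CO2. Signals from CellTiter-Glo luminescence were scaled with vehicle as 100% and a 10 µM positive control as 0%.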

HL-60 [3] = assay: as above
Procedure, shortened: as §1

KU-812 [4] = assay: as above
Procedure, shortened: as §1

HEL = assay: as above
Procedure, shortened: as §1

BV-173 = assay: as above
Procedure, shortened: as §1

NOMO-1 [5] = assay: as above
Procedure, shortened: as §1

KCL-22 = assay: as above
Procedure, shortened: as §1

MV4-11 [6] = assay: as above
Procedure, shortened: as §1

LAMA-84 = assay: as above
Procedure, shortened: as §1

SHI-1 = assay: as above
Procedure, shortened: as §1

MOLM-13 = assay: as above
Procedure, shortened: as §1

THP-1 = assay: as above
Procedure, shortened: as §1

ML-2 = assay: as above
Procedure, shortened: as §1

K-562 [7] = assay: as above
Procedure, shortened: as §1

KG-1 = assay: as above
Procedure, shortened: as §1

Mono-Mac-6 [8] = system: Mono-Mac-6
Procedure, shortened: (§2)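 For the IC50, dose–response curves were fitted with a log-logistic model. The data came from fifteen myeloid leukaemia cell lines grown in RPMI 1640 at densities in the linear growth range and incubated in 384-well plates for 72 h at 37 °C under 5% CO2. Doses were five tenfold steps from 1 to 10,000 nM in duplicate, and luminescent ATP viability was normalised to vehicle and to a positive control at 10 µM before four-parameter fitting.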

KU-812 [9] = system: KU-812
Procedure, shortened: as §2

NOMO-1 [10] = system: NOMO-1
Procedure, shortened: as §2

MV4-11 [11] = system: MV4-11
Procedure, shortened: as §2

K-562 [12] = system: K-562
Procedure, shortened: as §2

COc1cc(/C=C/C(=O)N2CCC=CC2=O)cc(OC)c1OC [Piperlongumine]
cell viability [%], HL-60 [1]
Details	0.001 µM	0.01 µM	0.1 µM	1 µM	10 µM
co-treatment: AZD3965 100 nM	101 ± 2.1	104 ± 7.3	102 ± 6.9	99.9 ± 3.3	-0.192 ± 0.13
co-treatment: DMSO vehicle	98.08 ± 0.7	100.5 ± 0.58	102.8 ± 0.73	97.9 ± 1.8	-0.533 ± 0.36
co-treatment: GSK2194069 100 nM	101 ± 4.2	102 ± 8.6	104.6 ± 1	87.9 ± 2.8	-0.0941 ± 0.82
co-treatment: pictilisib 100 nM	97.3 ± 5	94.8 ± 5.8	94.9 ± 3	83.8 ± 8.6	3.95 ± 4.7

cell viability [%]
Details	1 nM	10 nM	100 nM	1000 nM	10000 nM
BV-173	93.3	99.9	101	71.4	-0.383
HEL	90.1	111	103	97.5	-0.0957
HL-60 [3]	92.7	100	102	85.7	0.441
K-562 [7]	102	91.5	106	77.3	0.672
KCL-22	92.3	109	90.3	93.5	1.29
KG-1	98.4	102	93.1	98.3	4.3
KU-812 [4]	94.6	110	94.9	92.2	3.51
LAMA-84	104	106	104	98.8	2.16
ML-2	102	100	92.8	72.6	-0.133
MOLM-13	98.6	87.6	99.5	75.7	0.668
MV4-11 [6]	95	90.4	89.7	44.4	-0.271
Mono-Mac-6 [2]	94.3	107	98.7	86.5	1.58
NOMO-1 [5]	94.9	103	105	100	0.949
SHI-1	100	98.3	106	89	0.583
THP-1	103	93.9	101	88	-0.152

Details	IC50 (cell viability) [µM]
K-562 [12]	1.95
KU-812 [9]	2.87
MV4-11 [11]	0.959
Mono-Mac-6 [8]	2.38
NOMO-1 [10]	3.22

CC(C)c1nc(CN(C)C(=O)N[C@H](C(=O)N[C@@H](Cc2ccccc2)C[C@H](O)[C@H](Cc2ccccc2)NC(=O)OCc2cncs2)C(C)C)cs1 [Ritonavir]
cell viability [%], HL-60 [1]
Details	0.001 µM	0.01 µM	0.1 µM	1 µM	10 µM
co-treatment: AZD3965 100 nM	99.9 ± 2.7	102 ± 1.6	78.3 ± 26	102 ± 3.5	104 ± 3.9
co-treatment: DMSO vehicle	101 ± 2.2	103.3 ± 0.22	94.5 ± 3.8	87.4 ± 17	105.8 ± 0.3
co-treatment: GSK2194069 100 nM	94.5 ± 6.6	110 ± 17	88 ± 24	86.6 ± 30	67.1 ± 3.1
co-treatment: pictilisib 100 nM	105 ± 2	101 ± 2.1	97.5 ± 4.1	93.9 ± 7.7	99.2 ± 1.5

cell viability [%]
Details	1 nM	10 nM	100 nM	1000 nM	10000 nM
BV-173	107	89.8	96	85.7	39.1
HEL	90.8	99.8	107	94.2	87.8
HL-60 [3]	99	101	113	103	86.6
K-562 [7]	112	112	89	108	75.5
KCL-22	99.4	102	108	94.5	87.2
KG-1	95.7	96.8	108	101	71.1
KU-812 [4]	109	95.1	102	95.9	78.8
LAMA-84	115	103	102	100	88.6
ML-2	94.2	94.2	108	83.5	64.4
MOLM-13	104	104	95.3	96.2	99.3
MV4-11 [6]	120	98.1	95.9	87.2	71.9
Mono-Mac-6 [2]	91.7	98.6	97.6	88.1	79
NOMO-1 [5]	108	88.5	103	90.3	81.3
SHI-1	100	101	109	104	83.1
THP-1	97.1	91.7	107	97.3	88.2

Details	IC50 (cell viability) [µM]
K-562 [12]	> 10
KU-812 [9]	> 10
MV4-11 [11]	> 10
Mono-Mac-6 [8]	> 10
NOMO-1 [10]	> 10

O=C(C1CC1)N1CC[C@@H](C=C2NNC(=O)N2c2ccc(-c3ccc4occc4c3)cc2)C1
cell viability [%], HL-60 [1]
Details	0.001 µM	0.01 µM	0.1 µM	1 µM	10 µM
co-treatment: AZD3965 100 nM	101 ± 1.3	104 ± 5.5	81.6 ± 8.7	76.9 ± 0.96	68.9 ± 1.8
co-treatment: DMSO vehicle	101 ± 2.7	105 ± 2.8	95.1 ± 3.5	92 ± 7.1	85.8 ± 5.1
co-treatment: GSK2194069 100 nM	96.3 ± 1.3	103.6 ± 0.49	92 ± 2.8	86.9 ± 1	82.4 ± 3.5
co-treatment: pictilisib 100 nM	97.7 ± 10	104 ± 7.5	92.53 ± 0.68	76.6 ± 8.2	73.1 ± 6.3

cell viability [%]
Details	1 nM	10 nM	100 nM	1000 nM	10000 nM
BV-173	97.1	86.3	82.4	79	63.7
HEL	106	90.5	107	101	78.5
HL-60 [3]	101	66.7	48.4	35	38.1
K-562 [7]	95.4	78.1	73	79	54.4
KCL-22	99.1	101	94.9	86.2	58.3
KG-1	95.4	104	112	90.3	82.4
KU-812 [4]	99.8	94.8	99.9	102	67.1
LAMA-84	98.5	97.5	88.7	82.8	72.4
ML-2	101	98.4	107	97.8	88.4
MOLM-13	101	77.4	75.1	53.2	44.7
MV4-11 [6]	88.1	95.7	81	84	59.9
Mono-Mac-6 [2]	94.7	91.2	90	88	64.9
NOMO-1 [5]	98.1	98.6	107	99.4	89.9
SHI-1	90.4	99.4	108	94.7	79.6
THP-1	98.7	93.3	104	103	101

Details	IC50 (cell viability) [µM]
K-562 [12]	> 10
KU-812 [9]	> 10
MV4-11 [11]	> 10
Mono-Mac-6 [8]	> 10
NOMO-1 [10]	> 10

COc1ccc2c(C(=S)N(C)CC(=O)O)cccc2c1C(F)(F)F [Tolrestat]
cell viability [%], HL-60 [1]
Details	0.001 µM	0.01 µM	0.1 µM	1 µM	10 µM
co-treatment: AZD3965 100 nM	97.3 ± 1.8	106 ± 5.3	104 ± 3.8	97.9 ± 4.6	98.253 ± 0.033
co-treatment: DMSO vehicle	96 ± 0.68	106 ± 3.4	104 ± 2.6	99.23 ± 0.18	103.9 ± 0.94
co-treatment: GSK2194069 100 nM	99 ± 1.9	104.6 ± 0.97	97.5 ± 1.3	94.1 ± 4.1	97.1 ± 8.5
co-treatment: pictilisib 100 nM	95.7 ± 3	104 ± 8.2	96.8 ± 5.6	88.1 ± 8.6	100 ± 2

cell viability [%]
Details	1 nM	10 nM	100 nM	1000 nM	10000 nM
BV-173	84.3	108	86.1	88.5	101
HEL	91.2	98.9	95	93	101
HL-60 [3]	107	104	122	49.1	101
K-562 [7]	95.4	104	87.4	99.8	105
KCL-22	94.8	103	105	106	106
KG-1	91.8	95.3	95.6	93.5	101
KU-812 [4]	88.6	118	99.8	90.8	104
LAMA-84	97.7	106	100	95.6	98.6
ML-2	90.2	99	103	111	97.8
MOLM-13	105	149	63.3	105	88.5
MV4-11 [6]	97.4	109	98.2	101	86.3
Mono-Mac-6 [2]	86.5	113	94.1	113	95.4
NOMO-1 [5]	97.2	107	106	118	95.5
SHI-1	98.6	104	88.1	108	101
THP-1	93.9	94.8	103	104	94.4

Details	IC50 (cell viability) [µM]
K-562 [12]	> 10
KU-812 [9]	> 10
MV4-11 [11]	> 10
Mono-Mac-6 [8]	> 10
NOMO-1 [10]	> 10

CC[C@H](C)C(=O)O[C@H]1C[C@@H](C)C=C2C=C[C@H](C)[C@H](CC[C@@H]3C[C@@H](O)CC(=O)O3)[C@H]21 [Lovastatin]
cell viability [%], HL-60 [1]
Details	0.001 µM	0.01 µM	0.1 µM	1 µM	10 µM
co-treatment: AZD3965 100 nM	92.4 ± 13	104.3 ± 0.46	101 ± 8.2	98.2 ± 4.4	94.1 ± 4.6
co-treatment: DMSO vehicle	96.8 ± 1.3	102 ± 4.3	101 ± 4.2	96.5 ± 3.8	95.5 ± 2.6
co-treatment: GSK2194069 100 nM	104 ± 5.5	107 ± 2.7	104 ± 4.1	102 ± 1.6	98.48 ± 0.87
co-treatment: pictilisib 100 nM	98.2 ± 4.6	105 ± 0.52	98.1 ± 9.3	94.1 ± 12	75.54 ± 0.27

cell viability [%]
Details	1 nM	10 nM	100 nM	1000 nM	10000 nM
BV-173	109	94.6	95.3	98.7	79.1
HEL	101	87.8	114	92.6	86.3
HL-60 [3]	96.8	113	101	101	102
K-562 [7]	108	98.9	101	99.3	88.4
KCL-22	93.6	67.8	114	98.8	95.4
KG-1	98.7	93.3	107	96.3	90.2
KU-812 [4]	102	96.4	94	87.2	84
LAMA-84	88.8	103	104	92.3	90.9
ML-2	108	105	111	104	102
MOLM-13	86.4	85.7	83.8	87.4	74.7
MV4-11 [6]	97.6	97.3	106	93.5	93.2
Mono-Mac-6 [2]	97.4	101	95.7	96.8	92.2
NOMO-1 [5]	101	91.9	97.2	93.6	90.7
SHI-1	97.5	97.6	104	93.8	92.5
THP-1	98.1	88.8	100	97.3	98.6

Details	IC50 (cell viability) [µM]
K-562 [12]	> 10
KU-812 [9]	> 10
MV4-11 [11]	> 10
Mono-Mac-6 [8]	> 10
NOMO-1 [10]	> 10
